Structures can show the parent of a compound that is named as a salt.

Sequence of AKAP18δ-PLB interaction (Q6JP77 whole entry): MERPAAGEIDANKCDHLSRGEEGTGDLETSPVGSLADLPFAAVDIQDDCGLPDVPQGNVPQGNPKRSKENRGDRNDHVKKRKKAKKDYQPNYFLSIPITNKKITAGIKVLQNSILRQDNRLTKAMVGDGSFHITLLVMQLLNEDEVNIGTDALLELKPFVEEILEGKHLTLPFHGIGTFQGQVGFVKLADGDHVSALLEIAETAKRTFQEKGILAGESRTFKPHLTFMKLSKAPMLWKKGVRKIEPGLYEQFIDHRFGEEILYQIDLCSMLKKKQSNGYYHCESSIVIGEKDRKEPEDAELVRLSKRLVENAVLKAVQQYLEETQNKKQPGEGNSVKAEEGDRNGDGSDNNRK
Sequence of AKAP18δ-PLB interaction (P26678 whole entry): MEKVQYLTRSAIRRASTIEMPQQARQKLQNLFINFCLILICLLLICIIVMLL

One assay addresses AKAP18δ-PLB interaction (UniProt P26678+Q6JP77). The assay can be described thus: AlphaScreen binding assay of the GST-AKAP18δ : PLB-biotin interaction. As to conditions: compound library screen; Table 1 compounds similar to those of formula (I); read-out: EC50. The protocol:
Stable and optimal assay conditions were determined by cross-titrating GST-AKAP186 and biotinylated PLB using 10 μg/ml glutathione acceptor beads and 10 μg/ml streptavidin donor beads in an AlphaScreen assay. The excitation wavelength was 680 nm, with the emission wavelength being 520-560 nm. Signal intensity in each well was registered and the optimal concentration to use was chosen to be the concentration prior to the peak of the signal.
Concentrations to give a reliable signal were determined to be between 2 and 16 nM for AKAP18δ-GST and 4 and 20 nM PLB-biotin for relevant preparations of protein, for example 4 nM and 20 nM, respectively.
compound library was screened with the above assay.
The compounds of Examples 2-10 were tested for pharmacological activity using the Binding Assay described above. The compounds of Examples 2-10 were dissolved in DMSO to a concentration of 10 mM, diluted in aqueous solution and tested for their ability to disrupt the AKAP18δ-PLB interaction at different concentrations in the AlphaScreen binding assay as described above.
Signal intensity was recorded at each concentration of compound. Maximal signal representing full interaction between AKAP186 and PLB at 0 μM compound was set to 100% and loss of signal (due to compound disruption of the protein-protein interaction) plotted against log [conc compound] and curves fitted in SigmaPlot (see FIGS. 2a-2i).
Take `CC(C)(C)c1ccc(CN(Cc2ccc(F)cc2)Cc2nc(C(=O)O)cs2)cc1`: the EC50 worked out at 0.0416 mM. Same read-out and setting: then `Cc1ccc(CN(Cc2ccc(F)cc2)Cc2nc(C(=O)O)cs2)cc1`, with 0.137 mM; and `O=C(O)c1csc(CN(CCC(c2ccccc2)c2ccccc2)Cc2ccccc2F)n1`, with 0.0106 mM; and `O=C(O)c1csc(CN(CCC(c2ccccc2)c2ccccc2)Cc2ccc(F)cc2)n1`, with 0.018 mM.

Consider `CC(C)(C)c1ccc(CN(CCC(c2ccccc2)c2ccccc2)Cc2nc(C(=O)O)cs2)cc1`, for which the EC50 was determined as 0.0211 mM. On to `COc1ccc(CN(Cc2ccc(F)cc2)Cc2nc(C(=O)O)cs2)cc1`, for which the EC50 was 0.0256 mM. Regarding `Cc1ccc(CN(CCC(c2ccccc2)c2ccccc2)Cc2nc(C(=O)O)cs2)cc1`, the EC50 turned out to be 0.0354 mM. Regarding `O=C(O)c1ccc(CN(Cc2ccccc2)Cc2ccc(C(=O)O)cc2)cc1`, the EC50 stood at 0.0296 mM. As to `Nc1ccc(CN(Cc2ccccc2)Cc2ccc(N)cc2)cc1`, the EC50 was found to be 0.0038 mM. For `CCN(CC)c1ccc(CN(Cc2ccccc2)Cc2ccc(N(CC)CC)cc2)cc1`, the EC50 was 0.0029 mM.

Turning to `Nc1ccc(CN(Cc2ccc(N)cc2)Cc2ccc(N)cc2)cc1`, the EC50 was determined as 0.0222 mM. In the case of `Cc1ccc(NC(=O)Nc2ccc(CN(Cc3ccccc3)Cc3ccc(NC(=O)Nc4ccc(C)cc4)cc3)cc2)cc1`, the EC50 turned out to be 0.0025 mM. Same read-out and setting: then `O=C(O)c1csc(CN(Cc2ccc(F)cc2)Cc2cccc(Cl)c2)n1`, with 0.0364 mM; and `O=C(O)c1csc(CN(Cc2ccc(F)cc2)Cc2ccc(OCc3ccccc3)cc2)n1`, with 0.0395 mM. As to `O=C(O)c1csc(CN(Cc2ccc(F)cc2)Cc2cccc(C(F)(F)F)c2)n1`, the EC50 came to 0.0605 mM. For the compound `O=C(O)c1csc(CN(Cc2ccc(F)cc2)Cc2ccc(Cl)cc2)n1`, the EC50 was 0.0943 mM. Still for that read-out and setting: with `Cc1ccc(CN(Cc2cccc(C(F)(F)F)c2)Cc2nc(C(=O)O)cs2)cc1` the figure was 0.0983 mM; with `O=C(O)c1csc(CN(Cc2cccc(C(F)(F)F)c2)Cc2ccccc2F)n1`, 0.216 mM; with `O=[N+]([O-])c1ccc(CN(Cc2ccccc2)Cc2ccc([N+](=O)[O-])cc2)cc1`, 0.0075 mM. With `O=C(Nc1ccc(F)cc1)Nc1ccc(CN(Cc2ccccc2)Cc2ccc(NC(=O)Nc3ccc(F)cc3)cc2)cc1`, the half-maximal effective concentration (EC50) is 0.0093 mM. For `O=C(Nc1ccccc1)Nc1ccc(CN(Cc2ccccc2)Cc2ccc(NC(=O)Nc3ccccc3)cc2)cc1`, the EC50 is 0.0036 mM. Take `Cc1ccc(NC(=O)Nc2ccc(CN(Cc3ccc(NC(=O)Nc4ccc(C)cc4)cc3)Cc3ccc(NC(=O)Nc4ccc(C)cc4)cc3)cc2)cc1`: the EC50 was 0.0052 mM. On the same count and under the same terms, then `CN(C)c1ccc(CN(Cc2ccccc2)Cc2ccc(N(C)C)cc2)cc1`, with 0.002 mM.

The same assay, now with this note: half-maximal disruption of AKAP18δ-PLB signal; compounds of Examples 2-10; read-out: EC50.
For the compound `Cc1ccc(CN2CCc3ccccc3C2)cc1` [Compound 2, N-4-methyl-benzyl-1,2,3,4-tetrahydroisoquinoline], the EC50 amounted to 0.142 mM.

`CC(C)(C)c1ccc(CN2CCc3ccccc3C2)cc1` [Compound 3, N-4-t-butyl-benzyl-1,2,3,4-tetrahydroisoquinoline hydrochloride salt]: the EC50 was 0.0553 mM. On to `Brc1ccc(CN2CCc3ccccc3C2)cc1` [Compound 5, N-4-bromo-benzyl-1,2,3,4-tetrahydroisoquinoline hydrochloride salt], for which the EC50 was determined as 0.0645 mM. With `O=[N+]([O-])c1ccc(CN2CCc3ccccc3C2)cc1` [Compound 6, N-4-nitro-benzyl-1,2,3,4-tetrahydroisoquinoline], the EC50 is 0.0715 mM. For `c1ccc(CN2Cc3ccccc3C2)cc1` [Compound 7, N-benzyl-isoindoline hydrochloride salt], the EC50 was determined as 0.207 mM. As to `c1ccc2c(c1)CN(Cc1ccncc1)C2` [Compound 8, N-4-methylpyridyl-isoindoline], the half-maximal effective concentration (EC50) came to 0.0718 mM.

The same assay, now with this note: half-maximal disruption of AKAP18δ-PLB signal; compounds of Examples 2-10; value in mM.
In the case of `Cl.c1ccc(CN2CCc3ccccc3C2)cc1` [Compound 4, N-4-benzyl-1,2,3,4-tetrahydroisoquinoline hydrochloride salt], the EC50 result was “single-digit”.

The assay is the same for the next values; noted with them: half-maximal disruption of AKAP18δ-PLB signal; compounds of Examples 2-10; value in mM; read-out: EC50.
In the case of `Cl.c1ccc(CN2CCc3ccccc3C2)cc1` [Compound 4, N-4-benzyl-1,2,3,4-tetrahydroisoquinoline hydrochloride salt], the EC50 stood at 6.5 mM.

The values above are taken from patent US9585880B2, “Cyclic amino compounds for use in the treatment of cardiac disorders” (Universitetet I Oslo, priority 2013, dated 2017).
